Data on 21 molecules can be found in ChEMBL document CHEMBL5360614, “Quinoline Thiourea-Based Zinc Ionophores with Antibacterial Activity” (J Med Chem, 2023).

Assay [1] relates to Staphylococcus aureus. The assay is described as follows: Potency index, ratio of compound MIC to compound MIC in presence of 1 uM 1-(2-(1H-benzo[d]imidazol-1-yl)quinolin-8-yl)-3-(3,5-bis(trifluoromethyl)phenyl)thiourea and 200 uM ZnCl2 for antibacterial activity against gentamicin-and methicillin-resistant Staphylococcus aureus ATCC 33592. Type of assay: functional.
Assay [2] has as its system Staphylococcus aureus. The assay is described as follows: Antibacterial activity against gentamicin-and methicillin-resistant Staphylococcus aureus ATCC 33592 assessed as reduction in bacterial growth incubated for 14 to 16 hrs in presence of 1 uM 1-(2-(1H-benzo[d]imidazol-1-yl)quinolin-8-yl)-3-(3,5-bis(trifluoromethyl)phenyl)thiourea and 200 uM ZnCl2 by microbroth dilution method. The format is functional. The following applies: time 14-16 hrs. A general note: In broth dilution the organism is exposed to a series of concentrations in liquid medium.

Assay [3] concerns Staphylococcus aureus. Nature of the assay: Antibacterial activity against gentamicin-and methicillin-resistant Staphylococcus aureus ATCC 33592 assessed as reduction in bacterial growth incubated for 14 to 16 hrs in presence of 200 uM ZnCl2 by microbroth dilution method. The format is functional. The conditions noted are these: time 14-16 hrs.
Assay [4] has as its system Staphylococcus aureus. The assay is described as follows: Antibacterial activity against gentamicin-and methicillin-resistant Staphylococcus aureus ATCC 33592 assessed as reduction in bacterial growth incubated for 14 to 16 hrs in presence of 1 uM 1-(2-(1H-benzo[d]imidazol-1-yl)quinolin-8-yl)-3-(3,5-bis(trifluoromethyl)phenyl)thiourea by microbroth dilution method. The conditions noted are these: time 14-16 hrs. The format is functional.

Assay [5] deals with Staphylococcus aureus. The assay is described as follows: Antibacterial activity against gentamicin-and methicillin-resistant Staphylococcus aureus ATCC 33592 assessed as reduction in bacterial growth incubated for 14 to 16 hrs in presence of 1 uM 1-(2-(1H-benzo[d]imidazol-1-yl)quinolin-8-yl)-3-(3,5-bis(trifluoromethyl)phenyl)thiourea and 100 uM ZnCl2 by microbroth dilution method. The format is functional. The conditions noted are these: time 14-16 hrs.

Assay [6] relates to Staphylococcus aureus. The assay is described as follows: Antibacterial activity against gentamicin-and methicillin-resistant Staphylococcus aureus ATCC 33592 assessed as reduction in bacterial growth incubated for 14 to 16 hrs by microbroth dilution method. The following applies: time 14-16 hrs. Type of assay: functional.
The subject of assay [7] is Escherichia coli. Nature of the assay: Antibacterial activity against Escherichia coli MTCC 1687 assessed as reduction in bacterial growth incubated for 14 to 16 hrs by microbroth dilution method. Type of assay: functional. The conditions noted are these: time 14-16 hrs.
The test system of assay [8] is Staphylococcus aureus. The assay is described as follows: Antibacterial activity against Staphylococcus aureus MTCC-96 assessed as reduction in bacterial growth incubated for 14 to 16 hrs by microbroth dilution method. Type of assay: functional. The following applies: time 14-16 hrs.
The test system of assay [9] is Staphylococcus aureus. Nature of the assay: Antibacterial activity against gentamicin-and methicillin-resistant Staphylococcus aureus ATCC 33592 assessed as reduction in bacterial growth incubated for 14 to 16 hrs in presence of 1 uM 1-(2-(1H-benzo[d]imidazol-1-yl)quinolin-8-yl)-3-(3,5-bis(trifluoromethyl)phenyl)thiourea and 50 uM ZnCl2 by microbroth dilution method. The format is functional. The conditions noted are these: time 14-16 hrs.

The subject of assay [10] is Staphylococcus aureus. The assay is described as follows: Antibacterial activity against gentamicin-and methicillin-resistant Staphylococcus aureus ATCC 33592 assessed as reduction in bacterial growth incubated for 14 to 16 hrs in presence of 2 uM 1-(2-(1H-benzo[d]imidazol-1-yl)quinolin-8-yl)-3-(3,5-bis(trifluoromethyl)phenyl)thiourea and 50 uM ZnCl2 by microbroth dilution method. Type of assay: functional. The conditions noted are these: time 14-16 hrs.

In assay [11] the test system is Staphylococcus aureus. Nature of the assay: Antibacterial activity against gentamicin-and methicillin-resistant Staphylococcus aureus ATCC 33592 assessed as reduction in bacterial growth incubated for 14 to 16 hrs in presence of 100 uM ZnCl2 by microbroth dilution method. Type of assay: functional. The conditions noted are these: time 14-16 hrs.
The test system of assay [12] is Cell membrane. The assay is described as follows: Induction of cell membrane depolarization in Staphylococcus aureus MTCC-96 assessed as increase in fluorescence intensity at 30 uM by DiSC3-5 dye based fluorescence method. Type of assay: subcellular. The following applies: filed as opener.
In assay [13] the test system is Staphylococcus aureus. The assay is described as follows: In vivo antibacterial activity against Staphylococcus aureus MTCC-96 infected in Balb/c mouse assessed as liver central vein with minimum infiltration at 523.455 microM/Kg, iv for 7 days by hematoxylin and eosin staining based microscopic analysis. Type of assay: functional, organism-based. The conditions noted are these: time 7.0 day.

Assay [14] concerns Staphylococcus aureus. The assay is described as follows: In vivo antibacterial activity against Staphylococcus aureus MTCC-96 infected in Balb/c mouse assessed as hepatocyte distribution at 523.455 microM/Kg, iv for 7 days by hematoxylin and eosin staining based microscopic analysis. The format is functional, organism-based. The conditions noted are these: time 7.0 day.
Assay [15] relates to Staphylococcus aureus. The assay is described as follows: In vivo antibacterial activity against Staphylococcus aureus MTCC-96 infected in Balb/c mouse assessed as bacterial load by measuring CFU in liver at 523.455 microM/Kg, iv for 7 days by CFU assay (Rvb= 719 CFU). The format is functional, organism-based. The conditions noted are these: time 7.0 day.
The subject of assay [16] is Staphylococcus aureus. The assay is described as follows: In vivo antibacterial activity against Staphylococcus aureus MTCC-96 infected in Balb/c mouse assessed as less dilated portal vein in liver at 523.455 microM/Kg, iv for 7 days by hematoxylin and eosin staining based microscopic analysis. Type of assay: functional, organism-based. The conditions noted are these: time 7.0 day.

The subject of assay [17] is Staphylococcus aureus. Nature of the assay: In vivo antibacterial activity against Staphylococcus aureus MTCC-96 infected in Balb/c mouse assessed as less dilated hepatic artery at 523.455 microM/Kg, iv for 7 days by hematoxylin and eosin staining based microscopic analysis. The following applies: time 7.0 day. Type of assay: functional, organism-based.
In assay [18] the test system is Staphylococcus aureus. The assay is described as follows: Disruption of membrane integrity in Staphylococcus aureus MTCC-96 assessed as increase in fluorescence intensity by PI staining based fluorescence analysis. Type of assay: functional, organism-based.

Converted amounts (≈) assume the structure as drawn. The source made the active and inactive calls. Non-standard residues stand in square brackets, D forms with d. Residues, ends and D or L forms follow the SMILES beside them. ξ: configuration not given here. Orn = NCCC[C@H](N)C(=O)O; ξP = O=C(O)C1CCCN1 Some results are limits rather than exact numbers.

As usually defined, the MIC is the smallest concentration in the dilution series that meets the test's criterion for growth inhibition. On to `NC[C@H]1O[C@H](O[C@H]2[C@H](O)[C@@H](O[C@H]3O[C@H](CO)[C@@H](O)[C@H](N)[C@H]3O)[C@H](N)C[C@@H]2N)[C@H](O)[C@@H](O)[C@@H]1O` [KANAMYCIN], for which the Ratio in assay [1] stood at 499. The minimal inhibitory concentration (MIC) in assay [2] stood at 0.31 µM; in [3], 155 µM; in [4], 155 µM; in [5] it was 6.44 µM; in [6], 155 µM (≈ 75.1 µg/mL).

`FC(F)(F)c1cc(NC(=S)Nc2cccc3ccc(-n4ccnc4)nc23)cc(C(F)(F)F)c1`: the MIC in assay [7] is more than 50 µM; in assay [8], 12.5 µM (≈ 6.02 µg/mL); in assay [6], 12.5 µM (≈ 6.02 µg/mL).

Turning to `CC(C)(O/N=C(\C(=O)N[C@@H]1C(=O)N2C(C(=O)[O-])=C(C[n+]3ccccc3)CS[C@H]12)c1csc(N)n1)C(=O)O` [CEFTAZIDIME], in assay [1], the Ratio was found to be 1524. The MIC in assay [2] turned out to be 0.15 µM; in assay [3] it was 229 µM; in assay [4], 229 µM; in assay [5], 5.7 µM; in assay [6], 229 µM (≈ 125 µg/mL).

On to `CC(C)C[C@@H]1NC(=O)[C@H](CCCN)NC(=O)[C@H](C(C)C)NC(=O)[C@@H]2CCCN2C(=O)[C@@H](Cc2ccccc2)NC(=O)[C@H](CC(C)C)NC(=O)[C@H](CCCN)NC(=O)[C@H](C(C)C)NC(=O)C2CCCN2C(=O)[C@@H](Cc2ccccc2)NC1=O` (stereo partly drawn) (cyclo(L[dF]PV[Orn]L[dF][ξP]V[Orn])), for which the minimal inhibitory concentration (MIC) in assay [7] is 4.51 µM (≈ 5.15 µg/mL); in [8], 3.12 µM (≈ 3.56 µg/mL); in assay [6], 6.5 µM (≈ 7.42 µg/mL).

As to `CC1(C)S[C@@H]2[C@H](NC(=O)[C@H](N)c3ccccc3)C(=O)N2[C@H]1C(=O)O` [AMPICILLIN], the MIC in [9] was found to be 2 µM; in [2], 0.03 µM; in assay [3], 134 µM; in [4], 2.1 µM; in assay [5], 0.03 µM; in assay [10], 0.03 µM. For the same molecule, the minimum inhibitory concentration (MIC) in assay [11] was 134 µM; in assay [6], 134 µM (≈ 46.8 µg/mL). In addition, the Ratio in assay [1] is listed as 4466.

As to `S=C(Nc1ccccc1)Nc1cccc2cccnc12`, the MIC in assay [7] is more than 50 µM; in assay [8], more than 25 µM; in assay [6], more than 50 µM.

On to `FC(F)(F)c1ccc(NC(=S)Nc2cccc3cccnc23)cc1`, for which the MIC was more than 50 µM in assay [7], 6.25 µM (≈ 2.17 µg/mL) in [8] and 6.25 µM (≈ 2.17 µg/mL) in [6].

As for CUPRIC CHLORIDE, the minimal inhibitory concentration (MIC) in assay [8] was 1870 µM.

Regarding `[O-][n+]1ccccc1S` [PYRITHIONE], the MIC in assay [8] was 9.8 µM (≈ 1.25 µg/mL).

Regarding `FC(F)(F)c1cc(NC(=S)Nc2cccc3ccc(-n4ccc5ccccc54)nc23)cc(C(F)(F)F)c1`, the figures for the MIC in assay [7], in assay [8] and in assay [6] were more than 50 µM, 6.25 µM (≈ 3.32 µg/mL) and 6.25 µM (≈ 3.32 µg/mL), respectively.

On to `CC(C)[C@@H]1NC(=O)[C@H](C)OC(=O)[C@@H](C(C)C)NC(=O)[C@@H](C(C)C)OC(=O)[C@H](C(C)C)NC(=O)[C@H](C)OC(=O)[C@@H](C(C)C)NC(=O)[C@@H](C(C)C)OC(=O)[C@H](C(C)C)NC(=O)[C@H](C)OC(=O)[C@@H](C(C)C)NC(=O)[C@@H](C(C)C)OC1=O`, for which the outcome in [12] was Active.

Consider `FC(F)(F)c1cc(NC(=S)Nc2cccc3ccc(Nc4nc5ccccc5[nH]4)nc23)cc(C(F)(F)F)c1`, for which the MIC in [7], in assay [8] and in [6] was more than 50 µM each time.

As for `O=C(Nc1cc(C(F)(F)F)cc(C(F)(F)F)c1)Nc1cccc2cccnc12`, the MIC in assay [7], in [8] and in assay [6] was more than 50 µM each time.

`FC(F)(F)c1cc(NC(=S)Nc2cccc3ccc(-n4cccc4)nc23)cc(C(F)(F)F)c1`: the MIC in assay [7], in assay [8] and in assay [6] was more than 50 µM each time.

In the case of GENTAMICIN, the result in [13], in assay [14], in assay [16] and in [17] was Active. Besides, the Activity in assay [15] came out at 62 CFU.

Take `CN(C)[C@@H]1C(O)=C(C(N)=O)C(=O)[C@@]2(O)C(O)=C3C(=O)c4c(O)cccc4[C@@](C)(O)[C@H]3C[C@@H]12` [TETRACYCLINE]: the Ratio in [1] came to 933. Moreover, the MIC is 0.18 µM in assay [2]; 168 µM in assay [3]; 168 µM in assay [4]; 0.87 µM in assay [5]; 168 µM (≈ 74.7 µg/mL) in [6].

With `[Cl-].[Cl-].[Zn+2]` [ZINC CHLORIDE], the MIC came to 2000 µM in [7], 1560 µM in assay [8] and 1560 µM in assay [6].

Turning to `O=[N+]([O-])c1ccc(NC(=S)Nc2cccc3cccnc23)cc1`, the results for the MIC in [7], in assay [8] and in assay [6] were more than 50 µM, more than 25 µM and more than 50 µM, respectively.

For `O=C(O)c1cn(C2CC2)c2cc(N3CCNCC3)c(F)cc2c1=O` [CIPROFLOXACIN], the figures for the MIC in assay [7], in assay [8] and in assay [6] were 0.51 µM (≈ 0.169 µg/mL), 0.45 µM (≈ 0.149 µg/mL) and 1.5 µM (≈ 0.497 µg/mL), respectively. Moreover, the result in assay [18] was inactive.

Turning to `COc1ccc(NC(=S)Nc2cccc3cccnc23)cc1`, the figures for the minimum inhibitory concentration (MIC) in assay [7], in assay [8] and in assay [6] were more than 50 µM, more than 25 µM and more than 50 µM, respectively.

As to `CC1(C)S[C@@H]2[C@H](NC(=O)[C@H](N)c3ccc(O)cc3)C(=O)N2[C@H]1C(=O)O` [AMOXICILLIN], the Ratio in assay [1] worked out at 341. The minimum inhibitory concentration (MIC) stood at 0.05 µM in assay [2]; 17 µM in assay [3]; 17 µM in assay [4]; 4.09 µM in assay [5]; 17 µM (≈ 6.21 µg/mL) in assay [6].
